Reference: ChEMBL document CHEMBL5584233, “Amide bioisosteric replacement in the design and synthesis of quorum sensing modulators” (Eur J Med Chem, 2024)
Each block holds one compound with its values, some of them ahead of it.

How the values were obtained:
[1] = Inhibition of quorum sensing system in Vibrio fischeri; design: species or system Aliivibrio fischeri
[2] = molecular target: T1, Transcriptional activator protein LasR (Pseudomonas aeruginosa (strain ATCC 15692 / PAO1 / 1C / PRS 101 / LMG12228), UniProt P25084); experiment: Inhibition of LasR-mediated quorum sensing system in Pseudomonas aeruginosa PAO1 assessed as inhibition of pyocyanin production incubated for 24 hrs by absorbance based assay
T1 sequence (P25084 whole entry): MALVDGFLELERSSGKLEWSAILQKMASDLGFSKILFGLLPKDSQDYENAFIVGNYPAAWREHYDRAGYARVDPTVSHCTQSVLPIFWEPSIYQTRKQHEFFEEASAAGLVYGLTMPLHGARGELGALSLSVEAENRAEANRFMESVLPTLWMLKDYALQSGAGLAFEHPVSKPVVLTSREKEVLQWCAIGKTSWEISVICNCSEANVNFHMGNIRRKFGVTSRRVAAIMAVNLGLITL

[3] = molecular target: T2, Transcriptional regulator MvfR (Pseudomonas aeruginosa PA14) (UniProt A0A072ZLE6); experiment: Inhibition of PqsR-mediated quorum sensing system in Pseudomonas aeruginosa PAO1 assessed as inhibition of pyocyanin production at 100 uM relative to control
T2 sequence (whole entry): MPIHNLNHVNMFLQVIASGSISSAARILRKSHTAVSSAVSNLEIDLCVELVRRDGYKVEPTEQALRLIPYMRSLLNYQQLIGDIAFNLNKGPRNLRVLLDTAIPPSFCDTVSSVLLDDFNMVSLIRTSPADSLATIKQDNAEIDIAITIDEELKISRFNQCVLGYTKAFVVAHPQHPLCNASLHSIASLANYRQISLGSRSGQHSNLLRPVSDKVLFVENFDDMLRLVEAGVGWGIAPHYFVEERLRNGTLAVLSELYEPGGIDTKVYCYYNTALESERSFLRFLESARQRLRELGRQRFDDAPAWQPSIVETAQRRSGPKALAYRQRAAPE

[4] = molecular target: T3, Transcriptional regulator MvfR (Pseudomonas aeruginosa PA14, UniProt A0A072ZLE6); experiment: Inhibition of PqsR-mediated quorum sensing system in Pseudomonas aeruginosa PAO1 assessed as inhibition of pyocyanin production incubated for 24 hrs by absorbance based assay
T3 sequence (A0A072ZLE6 whole entry): T2 sequence (whole entry)

Pseudomonas aeruginosa = experiment: Antibiofilm activity against Pseudomonas aeruginosa PAO1 assessed as inhibition of biofilm formation at 50 uM incubated for 24 hrs by crystal violet staining based absorbance assay relative to control; format: functional; design: scale not given: the % may be the effect or the level left
[5] = molecular target: T3, Transcriptional regulator MvfR; experiment: Antagonist activity at PqsR in wild-type Pseudomonas aeruginosa PAO1-L assessed as reduction in HHQ level at 0.1 uM by LCMS/MS analysis
[6] = molecular target: T3, Transcriptional regulator MvfR; experiment: Antagonist activity at PqsR in wild-type Pseudomonas aeruginosa PAO1 assessed as reduction in AQ level
[7] = molecular target: T3, Transcriptional regulator MvfR; experiment: Inhibition of PqsR-mediated quorum sensing system in Pseudomonas aeruginosa PAO1 assessed as inhibition of pyocyanin production at 20 uM incubated for 24 hrs by absorbance based assay
[8] = molecular target: T3, Transcriptional regulator MvfR; experiment: Antagonist activity at PqsR in Pseudomonas aeruginosa IPCD48 clinical isolate assessed as reduction in PQS level at 0.1 uM by LCMS/MS analysis
[9] = Inhibition of quorum sensing system in Pseudomonas aeruginosa PAO1
[10] = Inhibition of quorum sensing system in Pseudomonas aeruginosa PAO1 transfected with lasB-GFP by measuring reduction in fluorescence intensity measured for 16 hrs by fluorescence assay
[11] = Inhibition of quorum sensing system in Chromobacterium violaceum CV026 assessed as reduction in violacein production
[12] = molecular target: T4, Transcriptional activator protein TraR (Agrobacterium tumefaciens, UniProt P33905); experiment: Antagonist activity at Agrobacterium tumefaciens TraR receptor
T4 sequence (P33905 whole entry): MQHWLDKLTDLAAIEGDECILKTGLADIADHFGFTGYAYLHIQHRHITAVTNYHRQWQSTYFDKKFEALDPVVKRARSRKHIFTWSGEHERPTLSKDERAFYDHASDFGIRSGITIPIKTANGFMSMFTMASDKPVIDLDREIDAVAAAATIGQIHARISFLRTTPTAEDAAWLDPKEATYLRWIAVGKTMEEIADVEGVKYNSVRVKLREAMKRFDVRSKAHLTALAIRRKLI

[13] = molecular target: T1, Transcriptional activator protein LasR; experiment: Inhibition of LasR-mediated quorum sensing system in Pseudomonas aeruginosa PAO1 assessed as inhibition of elastase production

SMILES: CCCCCS(=O)(=O)NC1CCOC1=O (stereo not drawn)
IC50 [1]: 2 µM

IC50 [2]: 3 µM
SMILES: Cc1cc(C)c(S(=O)(=O)NC[C@H]2O[C@@H](C)[C@@H](O)[C@@H](O)[C@@H]2O)c(C)c1

IC50 [2]: 88 µM
SMILES: C[C@@H]1O[C@H](CNC(=O)/C=C/c2ccccc2)[C@@H](O)[C@H](O)[C@@H]1O

inhibition [3]: 62%
SMILES: CCCCNC(=O)CSc1nc2ccccc2c(=O)n1C1CC1

SMILES: CCCCCCNC(=O)NC1CCOC1=O (stereo not drawn)
IC50 [4]: 1 µM

SMILES: O=C(Nc1ccc(F)cc1)c1cc(=O)c2ccccc2o1
Activity (Pseudomonas aeruginosa): 73.3%

SMILES: O=C(N[C@H]1CCOC1=O)SCc1ccc([N+](=O)[O-])cc1
IC50 [5]: 23 µM

SMILES: CCCCCCCCCCCCn1nnc(CC(=O)O)n1
IC50 [6]: 0.03 µM

SMILES: O=C(Nc1cc(=O)c2ccccc2o1)c1ccc([N+](=O)[O-])cc1[N+](=O)[O-]
Activity (Pseudomonas aeruginosa): 90%

SMILES: CCCCCCc1cncn1CC(=O)OCC
IC50 [7]: 87 µM

SMILES: CCOC(=O)CC(=O)c1ccccc1
IC50 [8]: 76 µM

SMILES: CCCCCCOC(=O)N[C@H]1CCOC1=O
IC50 [5]: 73 µM

SMILES: O=C1OCCC1NS(=O)(=O)CCc1ccccc1 (stereo not drawn)
IC50 [1]: 3 µM

inhibition [3]: 74%
SMILES: COc1ccc(NC(=O)Cn2cc(CSc3nc4ccccc4c(=O)n3C3CC3)nn2)cc1

SMILES: CCCCCCc1cncn1C1CCOC1=O (stereo not drawn)
IC50 [7]: 110 µM

SMILES: O=C(Nc1ccc([N+](=O)[O-])cc1)c1cc(=O)c2ccccc2o1
Activity (Pseudomonas aeruginosa): 58.7%

SMILES: FC(F)(F)c1cc(NCc2cn(-c3ccc(Oc4ccccc4)cc3)nn2)ccn1
IC50 [7]: 0.011 µM

SMILES: CCOC(=O)CC(=O)c1ccc(F)cc1
IC50 [8]: 23 µM

SMILES: CCCCSC(=O)N[C@H]1CCOC1=O
IC50 [5]: 45 µM

IC50 [9]: 1.1 µM
SMILES: CCCCCCCCCCS(=O)(=O)N[C@H]1CCOC1=O

SMILES: Fc1ccc(-n2cc(CNc3ccnc(C(F)(F)F)c3)nn2)cc1
IC50 [7]: 0.196 µM

IC50 [10]: 4.8 µM
SMILES: O=C(NCCc1ccc(Br)cc1)c1ccccc1[N+](=O)[O-]

IC50 [11]: 6.2 µM
SMILES: O=C(Nc1ccc(S(=O)(=O)N[C@H]2CCOC2=O)cc1)c1sccc1Cl

SMILES: O=C(N[C@H]1CCOC1=O)OCc1ccc([N+](=O)[O-])cc1
IC50 [5]: 22 µM

IC50 [9]: 1 µM
SMILES: CCCCCCCCCS(=O)(=O)N[C@H]1CCOC1=O

SMILES: CCCCS(=O)(=O)N[C@H]1CCOC1=O
IC50 [12]: 0.6 µM

SMILES: O=C(CN1CCOCC1)Oc1cccc([N+](=O)[O-])c1
IC50 [8]: 22 µM

IC50 [2]: 4 µM
SMILES: CO[C@H]1O[C@H](CNS(=O)(=O)c2c(C)cc(C)cc2C)[C@@H](O)[C@H](O)[C@@H]1O

SMILES: O=C(CN1CCOCC1)Nc1cccc([N+](=O)[O-])c1
IC50 [8]: > 483 µM

SMILES: O=C(Oc1c(Br)cc(Br)cc1CNC(=O)c1ccccc1[N+](=O)[O-])c1ccccc1Cl
IC50 [6]: 0.038 µM

IC50 [13]: 60 µM
SMILES: O=[N+]([O-])c1ccccc1S(=O)(=O)Nc1ccc(S(=O)(=O)Nc2nccs2)cc1

IC50 [10]: 6.6 µM
SMILES: O=C(NCc1cc(F)cc(F)c1)c1ccccc1[N+](=O)[O-]

IC50 [11]: 1.6 µM
SMILES: O=C(Nc1ccc(S(=O)(=O)N[C@H]2CCOC2=O)cc1)c1ccccc1F

SMILES: O=C(Nc1cc(=O)c2ccccc2o1)c1ccc(F)cc1
Activity (Pseudomonas aeruginosa): 65.3%

SMILES: CCCCCNC(=O)NC1CCOC1=O (stereo not drawn)
IC50 [4]: 1.1 µM

IC50 [10]: 6.5 µM
SMILES: O=C(NCc1cccc(I)c1)c1ccccc1[N+](=O)[O-]

SMILES: Nc1cc(NCC(=O)Nc2ccc(F)cc2)cc(C(F)(F)F)n1
IC50 [7]: 0.48 µM

IC50 [12]: 0.8 µM
SMILES: CCCCCCS(=O)(=O)N[C@H]1CCOC1=O
